Consider six compounds from article PMC7723751 (Bioorganic chemistry, 2020).

Test [1] concerns the target T1, human FAAH enzyme (Homo sapiens, UniProt O00519).
T1 sequence (O00519 1-579): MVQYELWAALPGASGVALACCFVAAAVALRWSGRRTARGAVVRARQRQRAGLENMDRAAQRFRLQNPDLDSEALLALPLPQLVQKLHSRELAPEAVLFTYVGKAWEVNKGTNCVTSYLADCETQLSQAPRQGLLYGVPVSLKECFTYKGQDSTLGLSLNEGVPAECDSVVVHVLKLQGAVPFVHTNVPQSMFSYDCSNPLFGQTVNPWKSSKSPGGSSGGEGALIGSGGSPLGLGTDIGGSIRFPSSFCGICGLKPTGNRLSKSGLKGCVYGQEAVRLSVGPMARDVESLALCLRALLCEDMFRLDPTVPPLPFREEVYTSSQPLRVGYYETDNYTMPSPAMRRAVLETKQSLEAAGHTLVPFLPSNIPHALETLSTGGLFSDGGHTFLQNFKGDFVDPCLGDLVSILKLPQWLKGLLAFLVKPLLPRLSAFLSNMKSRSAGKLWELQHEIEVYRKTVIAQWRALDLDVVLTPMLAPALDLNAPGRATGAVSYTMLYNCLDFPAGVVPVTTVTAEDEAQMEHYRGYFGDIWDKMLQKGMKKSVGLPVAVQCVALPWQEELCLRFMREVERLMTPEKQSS
The experiment in a line: Human FAAH enzyme inhibition assay. The class given is biochemical.

For test [2], the target named is T2, Human sEH (Homo sapiens, UniProt P34913).
T2 sequence (P34913 1-555): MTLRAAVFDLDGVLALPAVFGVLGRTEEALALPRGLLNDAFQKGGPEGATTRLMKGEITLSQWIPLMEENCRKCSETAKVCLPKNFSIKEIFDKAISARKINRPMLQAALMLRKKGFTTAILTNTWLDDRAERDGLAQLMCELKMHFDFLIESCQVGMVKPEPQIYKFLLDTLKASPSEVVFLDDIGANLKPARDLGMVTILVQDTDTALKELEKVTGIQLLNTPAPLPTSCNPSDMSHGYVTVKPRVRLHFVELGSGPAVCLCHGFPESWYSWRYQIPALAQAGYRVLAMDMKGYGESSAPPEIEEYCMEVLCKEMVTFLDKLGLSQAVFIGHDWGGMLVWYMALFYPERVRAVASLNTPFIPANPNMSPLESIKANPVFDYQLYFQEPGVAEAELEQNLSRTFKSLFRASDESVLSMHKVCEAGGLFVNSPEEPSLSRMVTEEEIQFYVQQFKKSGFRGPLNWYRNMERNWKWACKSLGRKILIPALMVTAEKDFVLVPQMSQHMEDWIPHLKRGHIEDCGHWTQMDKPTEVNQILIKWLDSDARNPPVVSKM
Briefly: Human sEH inhibition assay. The class given is biochemical. The following applies: sEH IC50, human sEH 1 nM, CMNPC 5 μM, pH 7.0, 30 °C.

For orientation: IC50 means the concentration that inhibits the measured activity by half. High values mean lower potency, low ones higher potency. Consider `O=C(Nc1ccc(-c2nc3ccccc3s2)cc1)C1CCN(S(=O)(=O)c2ccccc2)CC1` [Compound 4-3, N-(4-(benzo[d]thiazol-2-yl)phenyl)-1-(phenylsulfonyl)piperidine-4-carboxamide], for which the IC50 in test [1] was 8.6 nM; in test [2], 1100 nM.

In the case of `COc1cccc(S(=O)(=O)N2CCC(C(=O)Nc3ccc(-c4nc5ccccc5s4)cc3)CC2)c1` [Compound 4-13, N-(4-(benzo[d]thiazol-2-yl)phenyl)-1-((3-methoxyphenyl)sulfonyl)piperidine-4-carboxamide], the half-inhibitory concentration (IC50) in test [1] worked out at 14.6 nM; in test [2], 620 nM.

Consider `O=C(Nc1ccc(-c2nc3ccccc3s2)cc1)C1CCN(S(=O)(=O)c2ccc(Cl)cc2)CC1` [Compound 4-15, N-(4-(benzo[d]thiazol-2-yl)phenyl)-1-((4-chlorophenyl)sulfonyl)piperidine-4-carboxamide], for which the IC50 in test [1] came to 260 nM; in test [2] it was 710 nM.

As to `CC(C)c1cc(C(C)C)c(S(=O)(=O)N2CCC(C(=O)Nc3ccc(-c4nc5ccccc5s4)cc3)CC2)c(C(C)C)c1` [Compound 4-29, N-(4-(benzo[d]thiazol-2-yl)phenyl)-1-((2,4,6-triisopropylphenyl)sulfonyl)piperidine-4-carboxamide], the IC50 in test [1] came out at 2230 nM; in test [2], 840 nM.

Consider `O=C(Nc1ccc(-c2nc3ccccc3s2)cc1)C1CCN(S(=O)(=O)c2ccc(Br)cc2Br)CC1` [Compound 4-21, N-(4-(benzo[d]thiazol-2-yl)phenyl)-1-((2,4-dibromophenyl)sulfonyl)piperidine-4-carboxamide], for which the IC50 in test [1] is 10 nM; in test [2], 36 nM.

In the case of `Cc1cc(C)c(S(=O)(=O)N2CCC(C(=O)Nc3ccc(-c4nc5ccccc5s4)cc3)CC2)c(C)c1` [Compound 4-28, N-(4-(benzo[d]thiazol-2-yl)phenyl)-1-(mesitylsulfonyl)piperidine-4-carboxamide], the IC50 in test [1] came to 84 nM; in test [2] it was 790 nM.
